Data taken from patent US20220235073A1, “ARTEMISININ-DERIVATIVE N-HETEROCYCLIC CARBENE GOLD(I) HYBRID COMPLEXES” (CENTRE NATIONAL DE LA RECHERCHE SCIENTIFIQUE, priority 2019, published 2022).
Where two headings read alike, the source gives them in different places.

Columns and labels:
[1] = test system: PC-3 human prostate cancer cells; test: Cell viability MTT assay, PC-3; type: cell-based; details: for GI50: 72 h, MTT assay; for IC50: Table 3, tumor cell model
[2] = test system: MC3T3 mouse osteoblast cells; test: Cell viability MTT assay, MC3T3; type: cell-based; details: for GI50: 72 h, MTT assay; for Selectivity index MC3T3: SI = GI50 (MC3T3)/GI50 (PC-3); for IC50: Table 3, non tumoral cell model, read-out: IC50 MC3-T3 (osteoblasts); for Specificity Bone: MC3-T3 (normal immortalized)/U2OS (tumoral): ratio of IC50, tumoral versus non tumoral cells of same tissue
Procedure: PC-3 human prostate cancer cells, and LAMA chronic myeloid leukemia were cultured in RPMI 1640 containing 10% fetal bovine serum and 1% antibiotics (100 U/mL penicillin and 100 μg/mL streotimycin) at 37° C. in 5% CO2 humidified incubators. HL60 […] were cultured in RPMI 1640 containing 15% fetal bovine serum and 1% antibiotics (100 U/mL penicillin and 100 μg/mL streotimycin) at 37° C. in 5% CO2 humidified incubators. HepG-2 human liver cancer cells were cultured in EMEM containing 10% of FBS, 1% of nonessential amino acids, 1 mM of Na-pyruvate, 1% of PenStrep antibiotics and 600 μg/mL of Geneticin. A549 human lung carcinoma cells, T24 human bladder carcinoma cells, MCF-7 human breast adenocarcinoma cells, U-2OS human osteosarcoma and NIH3T3 murine fibroblast cells were cultured in DMEM medium containing 10% fetal bovine serum and 1% antibiotics at 37° C. in 5% CO2 humidified incubators. MC3T3 mouse osteoblast cells were cultured in MEM medium containing 10% fetal bovine serum and 1% antibiotics at 37° C. in 5% CO2 humidified incubators. RWPE-1 human prostate normal cells were cultured in K-SFM medium containing 0.05 mg/ml bovine pituitary extract (BPE) and 5 ng/ml epidermal growth factor (EGF) at 37° C. in 5% CO2 humidified incubators. The MTT reagent (3-(4,5-dimethylthiazol-2-yl)-2,5-diphenyltetrazolium bromide) was used to determine cell death as originally described by Mosmaneland modified by Cuvillier et al.^[6] Briefly, cells were seeded 5,000 to 10,000 cells/well in 24-well plates depending on the cell type and allowed to attach overnight. All of the complexes were dissolved in DMSO. The concentration of the complexes was calculated according to the elemental composition of the complexes determined by the elemental analyses. Media in the presence of the tested complexes were added and serially diluted to various concentrations (from 5 μM to 0.01 μM). Next to these concentrations, for DHA 50, 20 and 10 μM and for the cationic bisNHC gold(I) complex 3 0.001 μM have been used. […] After 72 h of treatment, cells were incubated at 37° C. and 5% CO2 with 25 μL MTT solution (5 mg/mL; Sigma-Aldrich) in 24-well plates for approximately 3 to 4 h. After solubilization with 500 μL of lysis buffer (DMSO), formazan was quantified by spectrophotometry with a microplate reader at 570 nm absorbance. The GI50 values corresponding to the concentration that caused 50% inhibition of cell proliferation were calculated from dose-response curves obtained by nonlinear regression analysis (Prism 8, Graphpad Software). All the results were calculated from data obtained in three independent experiments.

[3] = test system: Non tumoral cell models (MC3-T3, NIH3T3, RWPE1); test: MTT assay, mean over non tumoral cell models; type: cell-based; details: mean of MC3-T3, NIH3T3, RWPE1
Procedure: (§1) PC-3 human prostate cancer cells, and LAMA chronic myeloid leukemia were cultured in RPMI 1640 containing 10% fetal bovine serum and 1% antibiotics (100 U/mL penicillin and 100 μg/mL streotimycin) at 37° C. in 5% CO2 humidified incubators. HL60 […] were cultured in RPMI 1640 containing 15% fetal bovine serum and 1% antibiotics (100 U/mL penicillin and 100 μg/mL streotimycin) at 37° C. in 5% CO2 humidified incubators. HepG-2 human liver cancer cells were cultured in EMEM containing 10% of FBS, 1% of nonessential amino acids, 1 mM of Na-pyruvate, 1% of PenStrep antibiotics and 600 μg/mL of Geneticin. A549 human lung carcinoma cells, T24 human bladder carcinoma cells, MCF-7 human breast adenocarcinoma cells, U-2OS human osteosarcoma and NIH3T3 murine fibroblast cells were cultured in DMEM medium containing 10% fetal bovine serum and 1% antibiotics at 37° C. in 5% CO2 humidified incubators. MC3T3 mouse osteoblast cells were cultured in MEM medium containing 10% fetal bovine serum and 1% antibiotics at 37° C. in 5% CO2 humidified incubators. RWPE-1 human prostate normal cells were cultured in K-SFM medium containing 0.05 mg/ml bovine pituitary extract (BPE) and 5 ng/ml epidermal growth factor (EGF) at 37° C. in 5% CO2 humidified incubators. The MTT reagent (3-(4,5-dimethylthiazol-2-yl)-2,5-diphenyltetrazolium bromide) was used to determine cell death as originally described by Mosmaneland modified by Cuvillier et al.^[6] Briefly, cells were seeded 5,000 to 10,000 cells/well in 24-well plates depending on the cell type and allowed to attach overnight. All of the complexes were dissolved in DMSO. The concentration of the complexes was calculated according to the elemental composition of the complexes determined by the elemental analyses. […] After solubilization with 500 μL of lysis buffer (DMSO), formazan was quantified by spectrophotometry with a microplate reader at 570 nm absorbance. […] All the results were calculated from data obtained in three independent experiments.

Tumor cell models = test: MTT assay, panel of tumor cell models; type: cell-based, human; details: mean of PC-3, A549, U2OS, T24, MCF-7, LAMA, HL60
Procedure: as §1

Nrf2 = test: NRF2 transcriptional activity, ARE Reporter Hep G2 cell line; type: cell-based, human; details: ARE Reporter Hep G2 cells, 16 hours, any dose
Procedure: The ARE Reporter Hep G2 cell line containing a firefly luciferase gene under the control of ARE stably integrated into Hep G2 cells was used to quantify NRF2 transcriptional activity after 16 hours of treatment with the indicated doses of the different complexes. The results are shown as fold induction of ARE luciferase reporter expression. Dashed line indicates a fold induction of 1 (values >1 mean activation and values <1 mean inhibition).
ARE-reporter-HepG-2 cells were harvested from culture in Growth Medium 1K and they were seeded at a concentration of 40,000 cells/well into white clear-bottom 96-well microplate in 45 μL of Growth Medium 1K without Geneticin. Cells were allowed to attach overnight and then treated with different concentrations of complex 2a (from 0.01 μM to 20 μM), auranofin (from 0.01 μM to 20 μM) or DHA (from 0.01 μM to 3, 5, 10, 20 and 50 μM), and complex (from 0.01 μM to 20 μM). After incubation at 37° C. and 5% CO2 for 16 hours, ONE-Step luciferase assay reagent (100 μL) was added and rock at room temperature for over 15 minutes. Then the luminescence of each well was determined by CLARIOstar microplate reader to quantify induction of ARE. Three independent experiments were performed as biological triplicates. The results are in FIG. 4.

Compound | GI50 [1] [nM] | IC50 [1] [nM] | GI50 [2] [nM] | Selectivity index MC3T3 [2] | IC50 [2] [nM] | Specificity Bone: MC3-T3 (normal immortalized)/U2OS (tumoral) [2] | IC50 [3] [nM] | IC50 (Tumor cell models) [nM] | Effect on activity of Nrf2 (Nrf2) | GI50 ([1]; Homo sapiens) [nM] | IC50 ([1]; Homo sapiens) [nM] | GI50 ([2]; Mus musculus, Osteoblast) [nM] | IC50 ([2]; Mus musculus, Osteoblast) [nM] | IC50 (Tumor cell models; Homo sapiens) [nM]
CC(=O)OC[C@H]1O[C@@H]([S-])[C@H](OC(C)=O)[C@@H](OC(C)=O)[C@@H]1OC(C)=O.CCP(CC)CC.[Au+] [Auranofin] | 1090 | 1090 | 1390 | 1.2 | 1390 | 2.9 | 860 | 1460 | activate | – | – | – | – | –
C[C@H]1[C@@H](O)O[C@@H]2O[C@]3(C)CC[C@H]4[C@H](C)CC[C@@H]1[C@@]24OO3 [DHA, dihydroartemisinin] | – | – | – | 2.3 | – | 0.9 | 5700 | – | – | 1560 | 1560 | 3550 | 3550 | 5740
